Test results as given in patent US20080058373A1, “Compositions and Methods for Treating or Preventing Glaucoma or Progression Thereof” (priority 2006, published 2008).
Where “and” joins values, the source holds several entries; their conditions need not be identical. Equal values may be shown once.

How the values were obtained:
[1] = test system: rabbit eye (anterior chamber paracentesis); assay: Pupillary diameter measurement, rabbit paracentesis model; type: in vivo; settings: for Pupillary diameter T1: −180 min: 50 μl drops, −180 min (basal); for Pupillary diameter T1: −180 min / Pupillary diameter T2: −5 min / Pupillary diameter T3: +115 min: single eyes, listed as BOL; for Pupillary diameter T2: −5 min: 5 min before the first paracentesis; for Pupillary diameter T3: +115 min: 5 min before the second paracentesis; for Pupillary diameter Mean Δ(T3 − T1): group mean, n=8 eyes
Description: (§1) Each rabbit was placed in a restraint device and tagged with the alphanumeric code. The formulations were instilled (50 μl) into the conjunctival sac of both eyes 180, 120, 90 and 30 min before the first paracentesis; then 15, 30, 90 min after the first paracentesis. To perform the first paracentesis the animals were anaesthetized by intravenous injection of 5 mg/kg Zoletil® (Virbac; 2.5 mg/kg tiletamine HCl and 2.5 mg/kg zolazepam HCl) and one drop of local anesthetic (Novesina®, Novartis) was administered to the eye. Anterior chamber paracentesis was performed with a 26 G needle attached to a tuberculin syringe; the needle was introduced into the anterior chamber through the cornea, taking care not to damage the tissues. Two hours after the first paracentesis, the animals were sacrificed with 0.4 ml Tanax® (Intervet International B.V.) and the second paracentesis was performed. About 100 μl of aqueous humor were removed at the second paracentesis. Aqueous humor was immediately split in four aliquots and stored at −80° C. until analysis. Then both eyes were enucleated and the iris-ciliary body was carefully excised, placed in polypropylene tubes, and stored at −80° C. until analysis.
The pupillary diameter of both eyes was measured with a Castroviejo caliper 180 min and 5 min before the first paracentesis and 5 min before the second paracentesis.

[2] = test system: rabbit eye (anterior chamber paracentesis); assay: Clinical evaluation by slit lamp (clinical score), rabbit paracentesis model; type: in vivo; parameters: key to Clinical Score −180 min / Clinical Score −5 min / Clinical Score +115 min: 0=normal; 1=discrete dilatation of iris and conjunctival vessels; 2=moderate dilatation of iris and conjunctival vessels; 3=intense iridal hyperemia with flare in the anterior chamber; 4=intense iridal hyperemia with flare in the anterior chamber and presence of fibrinous exudates; settings: for Clinical Score −5 min: 5 min before the first paracentesis; for Clinical Score −5 min / Clinical Score +115 min / Clinical Score −180 min: single eyes; for Clinical Score +115 min: 5 min before the second paracentesis
protein in aqueous humor = assay: Protein measurement in aqueous humor, rabbit paracentesis model; type: in vivo; settings: for Protein levels in aqueous humor, Mean: second paracentesis, group mean
Description: as §1
For protein concentration determination in the aqueous humor we used the Protein Quantification Kit (Fluka; Cat.No. 77371; Lot.No. 1303129). Five microliters of aqueous humor were diluted to 100 μl with water. Twenty microliters of samples and of standards were load into a 96-well plate and recorded in a plate layout. Samples were treated following the assay procedure described in the kit. A microplate reader (GDV, Italy; model DV 990 B/V6) set at 670 nm was used for making the calibration and analyzing the samples.

Leukocytes (PMN) = Leukocytes (PMN) measurement in aqueous humor, rabbit paracentesis model; type: in vivo; settings: for PMN numbers in aqueous humor, Mean: second paracentesis, group mean
Description: as §1
For the determination of the number of leukocytes we used a haemocytometer (Improved Neubauer Chamber; Bright-line, Hausser Scientific) and a Polyvar 2 microscope (Reichert-Jung).

[3] = test system: New Zealand White rabbits; assay: Mortality/morbidity in the rabbit IOP study; type: in vivo; settings: for Day of Death (day euthanized or found dead) / Recorded Notes (mortality): individual rabbits; for Mortality (animals found dead or euthanized prior to study completion/number of animals in group): topical right eye 4 × daily, Day 33; for Mortality: rabbits that died or were euthanized between Days 11 and 33: right eye four times daily, Days 1-31
Description: On Days 1-31, animals received daily topical doses of the appropriate test article into the right eye. Animals were dosed four times per day, with doses administered 2 hours apart. Doses were administered using a calibrated 50-μL pipette. The eyelids were held close for 10 seconds immediately following dosing. The time of each dose administration was recorded.
Animals determined to be moribund were euthanized with an intravenous injection of commercial euthanasia solution.

[4] = test system: primary human corneal epithelial cells; assay: IL-1β-stimulated cytokine production in primary HCECs (30-cytokine Luminex kit)
Description: Primary HCECs were seeded in 24-well plates. […] Each treatment was performed in triplicate. Media were collected and used for determination of cytokine content using a 30-cytokine Luminex kit. Cell viability was determined by alamarBlue assay (LP06013).
Median fluorescence intensity (MFI) was used to obtain the concentration of each cytokines in pg/ml based on the standard curve of each cytokine assayed by Luminex. The linear range of the standard curve for each cytokine was used for determination of cytokine concentration. Duplicate values for each sample were averaged. Data were expressed as mean±SD. Statistical analysis was performed using one-way ANOVA-Dunnett's test, and P<0.05 was considered statistically significant.

[5] = 0.1% topical, +115 min, N=8 eyes
[6] = 0.5% topical, +115 min, N=8 eyes
[7] = 1 mg/g (0.05 mg/dose) 4 × daily, Group D
[8] = 10 mg/g (0.5 mg/dose) 4 × daily, Group B
[9] = 10 ng/ml IL-1β-stimulated HCECs, 18 h, P<0.05
[10] = IL-1β-stimulated HCECs, 18 h, P<0.05

Cc1ccc2c(NCC(O)(CC(C)(C)c3cc(F)cc4c3OCC4)C(F)(F)F)cccc2n1 (stereo not drawn)
Pupillary diameter T1: −180 min ([1]; 0.1% topical): 6.5 mm and 7.0 mm and 7.5 mm | Pupillary diameter T2: −5 min ([1]; 0.1% topical): 6.5 mm and 7.0 mm and 7.5 mm | Pupillary diameter T3: +115 min ([1]; 0.1% topical): 5.0 mm and 6.0 mm and 6.5 mm and 5.5 mm | Pupillary diameter Mean Δ(T3 − T1) ([1]; 0.1% topical): −1.1 mm | Pupillary diameter T1: −180 min ([1]; 0.5% topical): 8.0 mm and 7.0 mm and 7.5 mm | Pupillary diameter T2: −5 min ([1]; 0.5% topical): 8.0 mm and 7.0 mm and 7.5 mm | Pupillary diameter T3: +115 min ([1]; 0.5% topical): 6.5 mm and 6.0 mm and 7.0 mm | Pupillary diameter Mean Δ(T3 − T1) ([1]; 0.5% topical): −1.0 mm | Pupillary diameter T1: −180 min ([1]; 1% topical): 6.0 mm and 6.5 mm | Pupillary diameter T2: −5 min ([1]; 1% topical): 6.0 mm and 6.5 mm and 7.0 mm | Pupillary diameter T3: +115 min ([1]; 1% topical): 5.5 mm and 5.0 mm and 6.0 mm | Pupillary diameter Mean Δ(T3 − T1) ([1]; 1% topical): −0.9 mm | Clinical Score −5 min ([2]; 0.1% topical): 0 | Clinical Score +115 min ([2]; 0.1% topical, listed as BOL): 2 and 3 | Percentage of eyes with clinical score 2 [2, 5]: 75% | Percentage of eyes with clinical score 3 [2, 5]: 25% | Percentage of eyes with clinical score 0 ([2]; 0.1% topical, −5 min, N=8 eyes): 100% | Percentage of eyes with clinical score 0 ([2]; 0.1% topical, −180 min (basal), N=8 eyes): 100% | Clinical Score −180 min ([2]; 0.1% topical, −180 min (basal)): 0 | Clinical Score −5 min ([2]; 0.5% topical): 0 | Clinical Score +115 min ([2]; 0.5% topical, listed as BOL): 2 and 1 | Percentage of eyes with clinical score 1 [2, 6]: 37.5% | Percentage of eyes with clinical score 2 [2, 6]: 62.5% | Percentage of eyes with clinical score 0 ([2]; 0.5% topical, −5 min, N=8 eyes): 100% | Percentage of eyes with clinical score 0 ([2]; 0.5% topical, −180 min (basal), N=8 eyes): 100% | Clinical Score −180 min ([2]; 0.5% topical, −180 min (basal)): 0 | Clinical Score −5 min ([2]; 1% topical): 0 | Clinical Score +115 min ([2]; 1% topical): 2 | Percentage of eyes with clinical score 2 ([2]; 1% topical, +115 min, N=8 eyes): 100% | Percentage of eyes with clinical score 0 ([2]; 1% topical, −5 min, N=8 eyes): 100% | Percentage of eyes with clinical score 0 ([2]; 1% topical, −180 min (basal), N=8 eyes): 100% | Clinical Score −180 min ([2]; 1% topical, −180 min (basal)): 0 | Protein levels in aqueous humor, Mean (protein in aqueous humor; 0.1% topical): 33.667 mg/mL | Protein levels in aqueous humor (raw data) (protein in aqueous humor; 0.5% topical, samples collected at the second paracentesis, single eyes, listed as BOL): 33.98 mg/mL and 33.65 mg/mL and 19.99 mg/mL and 27.11 mg/mL and 19.72 mg/mL and 36.35 mg/mL and 27.71 mg/mL and 32.24 mg/mL | Protein levels in aqueous humor, Mean (protein in aqueous humor; 0.5% topical): 28.844 mg/mL | Protein levels in aqueous humor, Mean (protein in aqueous humor; 1% topical): 21.435 mg/mL | PMN numbers in aqueous humor, Mean (Leukocytes (PMN); 0.1% topical): 28.333 number/μl | PMN numbers in aqueous humor, Mean (Leukocytes (PMN); 0.5% topical): 21.250 number/μl | PMN numbers in aqueous humor (raw data) (Leukocytes (PMN); 1% topical, samples collected at the second paracentesis, single eyes, listed as BOL): 30 number/μl and 20 number/μl and 40 number/μl | PMN numbers in aqueous humor, Mean (Leukocytes (PMN); 1% topical): 28.750 number/μl | Day of Death (day euthanized or found dead) [3, 7]: 29 | Recorded Notes (mortality) [3, 7]: Found dead. | Mortality (animals found dead or euthanized prior to study completion/number of animals in group) ([3]; 1 mg/g, 0.05 mg/dose): 1/10^(6) | Mortality: rabbits that died or were euthanized between Days 11 and 33 ([3]; 5 mg/g suspension ([…])): two of ten | Mortality (animals found dead or euthanized prior to study completion/number of animals in group) ([3]; 5 mg/g, […]): 2/10^(5) | Day of Death (day euthanized or found dead) [3, 8]: 11 | Recorded Notes (mortality) [3, 8]: Found dead. Noted on Day 9 to have significant diarrhea and | Mortality: rabbits that died or were euthanized between Days 11 and 33 ([3]; 10 mg/g suspension (0.5 mg/dose)): one of ten | Mortality (animals found dead or euthanized prior to study completion/number of animals in group) ([3]; 10 mg/g, 0.5 mg/dose): 1/10^(4) | Concentration at which a significant inhibitory effect was observed on IL-6 [4, 9]: 1 nM | Concentration at which a significant inhibitory effect was observed on MCP-1 [4, 9]: 10 nM | Concentration at which a significant inhibitory effect was observed on TGF-α [4, 9]: 10 nM | Concentration at which a significant inhibitory effect was observed on TNF-α [4, 9]: 10 nM | Potency versus dexamethasone for inhibition of G-CSF production ([4]; IL-1β-stimulated HCECs): more potent than dexamethasone | Potency versus dexamethasone for inhibition of GM-CSF, IL-8 and RANTES production ([4]; IL-1β-stimulated HCECs): somewhat less potent than dexamethasone | Potency versus dexamethasone for inhibition of IL-6, IL-7, TGF-α, TNF-α, VGEF and MCP-1 production ([4]; IL-1β-stimulated HCECs): comparable potency | Inhibition of IL-1β-stimulated production of 6 cytokines (IL-6, IL-7, MCP-1, TGF-α, TNF-α and VEGF) ([4]; IL-1β-stimulated HCECs, 18 h): significantly inhibited | Concentration at which a significant inhibitory effect was observed on G-CSF [4, 10]: 10 µg/mL | Concentration at which a significant inhibitory effect was observed on GM-CSF [4, 10]: 10 nM | Concentration at which a significant inhibitory effect was observed on RANTES [4, 10]: no significant effect
